The target in series [1] is T1, human β2-AR (Homo sapiens, UniProt P07550). Kind of series: Calcium response (Fluo-4) in Flp-In-293 cells stably transfected with ADRB2 and GNA15. The class given is cell-based.
Description: Assessment of β2-AR responses in cultured mammalian cells. […] The cell line expressing both β2-AR and Gα16 was selected in two successive transfection steps. First, Flp-In-293 cells were co-transfected with pMET7-ADRB2-FRT and pOG44. After Flp recombinase-assisted stable integration, an isogenic cell pool expressing the β2-AR was selected in hygromycin-containing medium (100 μg/ml). Second, the isogenic cell pool was cotransfected with p-GNA15 and pIRES-Puro2 (Clontech) in a 5:1 ratio, followed by selection of single clones in medium containing puromycin (0.8 μg/ml). Flp-In-293 cells were maintained in DMEM medium (Gibco), containing penicillin/streptomycin (Sigma) and fetal bovine serum (Sigma) (10%). Hygromycin (100 μg/mL) was added for cells containing the ADRB2 construct, and puromycin (1 μg/mL) was added for the cells containing the GNA15 construct. The Flp-In-293 cells were transferred for β2-AR assays to clear- and flat-bottom 96-well plates in DMEM (Gibco) containing dialyzed fetal bovine serum (Sigma). The plates were coated with fibronectin (Sigma). For that purpose, the fibronectin solution was diluted 40 times in PBS, added in the plate wells (60 μL), and removed again after incubation for 1 h, after which the plates were allowed to dry for 1 h. The Fluo-4 NW kit (Invitrogen) was used for detection of calcium signals following the manufacturer's protocol. All compounds tested were dissolved in HBSS (Sigma) at 37° C. Adrenergic antagonists (Sigma) were always added together with the Fluo4 compound, 50 min before addition of agonist. Agonists were added just prior to the actual measurement of the calcium signals generated. The Flexstation II apparatus (Molecular Devices) was used to perform calcium measurements. After overnight growth of the cells in transfer medium in the aforesaid multiwell-96 plates, the medium was removed, the cells incubated with 100 μL of the loading dye solution (Fluo-4), the plates covered with aluminum foil, and incubated at 37° C. for 30-50 min.
Series [2] can be described thus: Caco-2 permeability assay. The class given is in vitro ADME, human. Conditions: human; for recovery at 1 μM: Caco-2, pH 7.4, Caco-2, 1.0 μM; for Papp A→B / Papp B→A: Caco-2, pH 7.4; for Papp at 1 μM: summary, read-out: Permeability in Caco2 assay. The text has this:
(§1) Caco-2 cell permeability data of compound CD3-403 (apical to basal (A-B) and basal to apical (B-A), measured at pH 7.4 in both apical and basal compartment)

In another series the test system is Caco-2 cells. Kind of series: Caco-2 permeability assay. The format is in vitro ADME, human.
Excerpt: as §1

The nature of series [3]: In vivo oral glucose tolerance test. On the set-up: species or system rat. Conditions: rats. How it is done:
Animals and diet. All the experiments were approved by the ethical committee on animal experimentation of the KU Leuven. Wistar rats (Harlan Netherlands B.V.) were maintained on a 12 h light-12 h dark cycle, and fed with standard rat food chow and water ad libitum. The oral glucose tolerance test was performed on normal rats weighing around 250 g, which were fasted for 16 h before the test. Blood was sampled by tail vein puncture, and the blood glucose level was measured by glucometer (Verio OneTouch glucometer). Rats were divided in four groups: one with glucose 2 g/kg or glucose 4 g/kg (Sigma Aldrich), both in the presence or absence of CD3-403. […] Glucose or glucose along with CD3-403, dissolved in 0.9% saline, was administered to rats by oral gavage in the respective groups. […] All experiments were conducted around the same time in the morning.

Series [4] deals with T1, human β2-AR. Kind of series: Competitive radioligand binding assay with 125I-cyanopindolol on membrane vesicles. The following applies: maximal increase with increasing concentrations. On the set-up: purchased PerkinElmer RBHBE2M.
Description: TRIS-HCl buffer containing MgCl2 and EGTA was used as incubation and assay buffer, while TRIS-HCl buffer was used as wash buffer. All buffers were cooled and all further steps performed on ice. Membranes were diluted 150 times in assay buffer. […] The mixtures were incubated for 1 h at ambient temperature, and subsequently filtered using a vacuum pump over GF/C filters (Whatman), pre-soaked in 0.5% polyethyleneimine.
Series [5] relates to HEK-293 cells (endogenous β2-AR). The following applies: 1 μM epinephrine.
Description: Assessment of β2-AR responses in cultured mammalian cells. […] The cell line expressing both β2-AR and Gα16 was selected in two successive transfection steps. First, Flp-In-293 cells were co-transfected with pMET7-ADRB2-FRT and pOG44. After Flp recombinase-assisted stable integration, an isogenic cell pool expressing the β2-AR was selected in hygromycin-containing medium (100 μg/ml). Second, the isogenic cell pool was cotransfected with p-GNA15 and pIRES-Puro2 (Clontech) in a 5:1 ratio, followed by selection of single clones in medium containing puromycin (0.8 μg/ml). Flp-In-293 cells were maintained in DMEM medium (Gibco), containing penicillin/streptomycin (Sigma) and fetal bovine serum (Sigma) (10%). Hygromycin (100 μg/mL) was added for cells containing the ADRB2 construct, and puromycin (1 μg/mL) was added for the cells containing the GNA15 construct. The Flp-In-293 cells were transferred for β2-AR assays to clear- and flat-bottom 96-well plates in DMEM (Gibco) containing dialyzed fetal bovine serum (Sigma). The plates were coated with fibronectin (Sigma). For that purpose, the fibronectin solution was diluted 40 times in PBS, added in the plate wells (60 μL), and removed again after incubation for 1 h, after which the plates were allowed to dry for 1 h. The Fluo-4 NW kit (Invitrogen) was used for detection of calcium signals following the manufacturer's protocol. […]
The target of series [6] is T1, human β2-AR. The following applies: Xenopus oocytes, CFTR readout.
Description: Two-Electrode Voltage Clamp (Xenopus oocytes). […] RNA was then transcribed in vitro with the Ribomax kit (Promega) or the mMESSAGE mMACHINE T7 kit (Ambion) following the manufacturer's protocol. RNA was visualized and its quality assessed on RNase-free agarose gels, and stored at −80° C.
For oocyte collection, female Xenopus frogs were anesthetized by submersion in ice water/crushed ice for 30 min. After abdominal incision, the ovarian lobes were pulled out, cut off, and the oocyte clump was placed in ORi. Oocytes were then liberated in ORi-collagenase (1 mg/mL) for 1-2 h on a shaking incubator, and subsequently transferred to a Ca^2+-free solution using one washing step. They were shaken vigorously for maximum 15 min before collecting the individual oocytes in ORi buffer. Stage V oocytes were then selected under the microscope.
For injection of the oocytes, RNA encoding the CFTR and/or β2-AR protein was drawn from a droplet afloat in mineral oil with a glass capillary. Injection volume was 46 nl. The amount of RNA varied between 10 and 25 ng. Injected oocytes were stored in ORi at 16° C. for maximum 3 days until ready for testing. During the measurements, oocytes were continuously clamped to −60 mV. All measurements were recorded using the home-made software, DSPOOC.
The subject of series [7] is everted sacs prepared from rat intestine. The series is described as follows: Glucose uptake into everted sacs of rat intestine. Conditions: epinephrine 10 μM in external medium, 5 mM glucose; without epinephrine 440±132. How it is done:
Rats weighing around 150 g were fasted overnight before the experiment, and euthanized by cervical dislocation on the day of the experiment. The abdomen was opened by a midline incision, and a segment of around 35 cm of proximal intestine was isolated. The intestinal segment was rinsed with ice-cold Ringer solution (composition (mM): 140 NaCl, 5 KCl, 1 MgCl2, 2 CaCl2, 10 HEPES, 10 TRIS, gassed with 95% O2 and 5% CO2, pH 7.4), and 4-7 everted sacs were prepared, each approximately 3 cm in length, by tying off the ends of the intestinal segments with threads (46). The sacs were filled with Ringer solution containing 5 mM mannitol (Sigma Aldrich) (to maintain osmotic balance) and L-glutamine (2 mM) (Sigma Aldrich) (as an energy source). Each everted sac was transferred to a separate glass beaker containing 50 mL continuously oxygenated Ringer solution with L-glutamine (2 mM), and maintained in a water bath at 37° C. Then, epinephrine 10 μM (Sigma Aldrich), mannose 5 mM (Sigma Aldrich), ICI 118,551 10 μM (Sigma Aldrich), phlorizin 100 μM (Sigma Aldrich), LX4211 2 μM (MedKoo Biosciences, Inc. USA.) or Ringer solution were added to the respective beaker for a 15-min pre-incubation (concentrations indicate final concentrations of the compounds). For the sacs treated with ICI 118,551, phlorizin or LX 4211, the inhibitors were added before mannose or epinephrine. After pre-incubation, 5 mM glucose, or 2.5 mM glucose for the ICI 118,551 control experiment, was added to the external buffer to initiate glucose transport. […] These samples were analyzed using a glucose assay kit based on glucose oxidase (Sigma Aldrich, for details, see below). […] Also for colchicine, a TRIS-free Ringer solution was used, as TRIS interferes with colchicine activity (130). […] We noticed that it was important to take certain precautions during these experiments: the intestine was never allowed to overfill and be stretched while rinsing the intestinal lumen at the time of isolation and filling the everted sac with Ringer solution. Trapping air bubbles inside the everted sac was avoided. Also, the regions of the intestine where mucus was still present were not used for preparing everted sacs. […] The glucose concentration of the samples was assayed by a glucose assay kit (Sigma Aldrich, GOD/POD method). The assay procedure recommended by the kit was modified for small sample volumes as follows. Fifty μL of sample was transferred to a well of a 96-well plate, and at time zero, the reaction was started by adding 100 μL of assay reagent to the first well, and mixing. Each well was allowed to react for exactly 30 min at 37° C. The reaction was stopped by adding 100 μL of 12 N H2SO4 (Merck) into each well, and carefully mixing. The absorbance was measured at 540 nm with a plate reader (Tecan 200).

The mark [8] stands for this setting: concentration response curve, 1st experiment, read-out: IC50 (nM) 1st experiment.
The mark [9] stands for this setting: concentration response curve, 2nd experiment, read-out: IC50 (nM) 2nd experiment.
Where [10] appears, read: summary of screening, read-out: IC50.
The mark [11] stands for this setting: Caco-2, 1.0 μM, pH 7.4 in both compartments.

Where two headings read alike, the source gives them in different places.

T1 sequence (P07550 whole entry): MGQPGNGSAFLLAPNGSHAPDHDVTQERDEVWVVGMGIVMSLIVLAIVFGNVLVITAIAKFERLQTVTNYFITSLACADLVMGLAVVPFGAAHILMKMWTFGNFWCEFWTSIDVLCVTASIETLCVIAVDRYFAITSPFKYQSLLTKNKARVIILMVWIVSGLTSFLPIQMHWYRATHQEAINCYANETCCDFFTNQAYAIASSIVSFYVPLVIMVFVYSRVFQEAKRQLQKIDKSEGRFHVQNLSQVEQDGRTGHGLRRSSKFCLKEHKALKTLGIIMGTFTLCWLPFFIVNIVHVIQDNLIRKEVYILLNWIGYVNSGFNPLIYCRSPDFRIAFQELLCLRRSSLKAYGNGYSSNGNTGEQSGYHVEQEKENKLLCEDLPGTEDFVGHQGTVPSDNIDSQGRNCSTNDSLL

As to `CC(C)(C)NC[C@@H](O)COc1cccc2[nH]cc(CC(N)=O)c12` [CD3-403], the 50% inhibitory concentration (IC50) on human β2-AR [1] (5 nM epinephrine, read-out: IC50 of the calcium response elicited by 5 nM epinephrine) was 46 nM; on human β2-AR [1] (setting [8]), 221 nM; on human β2-AR [1] (setting [9]), 46 nM; on human β2-AR [1] (concentration response curve, old stock, read-out: IC50 (nM) old stock) it was 40 nM; at human β2-AR [1] (second CD3 compounds overview table, epinephrine 5 nM, read-out: IC50) it was 40 nM; on human β2-AR [1] (setting [10]), 46 nM. Also, the “% INHIBITION” value on human β2-AR [1] (second CD3 compounds overview table, epinephrine 5 nM) is given as 97%. The recovery at 1 μM in series [2] (pH 7.4 in both compartments, read-out: Mean Recovery (A-B)) is 83%; in series [2] (pH 7.4 in both compartments, read-out: Mean Recovery (B-A)), 94%. Besides, the apparent permeability from apical to basolateral (Papp A→B) in series [2] (test concentration 1.0E−06 M) is 0.4 ×10⁻⁶ cm/s. Besides, in series [2] (test concentration 1.0E−06 M), the Papp B→A is 1.3 ×10⁻⁶ cm/s. For the same compound, the Papp at 1 μM in series [2] (Caco-2) was found to be 0.4 ×10⁻⁶ cm/s. Further, in series [2] (Caco-2, 1.0 μM, B-A/A-B), the efflux ratio at 1 µM worked out at 3.25. The compound further had a Papp A→B at 1 μM in series [2] (setting [11]) of 0.4 ×10⁻⁶ cm/s. The compound further registered a basolateral-to-apical permeability (Papp B→A) at 1 μM in series [2] (setting [11]) of 1.3 ×10⁻⁶ cm/s. In the series with Caco-2 cells (assessed by a Caco-2 permeability assay), the “Cell permeability” value was “very low cell permeability”. The Efflux with Caco-2 cells (test concentration 1.0E−06 M) was found to be 3.25. The MeanRecovery (A-B) with Caco-2 cells (test concentration 1.0E−06 M) came to 83%. The MeanRecovery (B-A) with Caco-2 cells (test concentration 1.0E−06 M) was found to be 94%. Besides, in series [3] (glucose 2 g/kg, 100% as baseline, mean±SD, control 8056±2990), the “Area under the curve (AUC) of the glucose increase” value worked out at 5907±2195. In series [3] (oral gavage, glucose 2 g/kg, 5 μM (0.05 mg/kg) CD3-403), the “Increase in blood glucose level after oral glucose bolus” value was “reduced increase in blood glucose level, which was significant at 60 min”. For the same compound, the “Blood glucose concentration after oral glucose bolus” value in series [3] (oral gavage, glucose 4 g/kg, 5 μM (0.05 mg/kg) CD3-403) is “trend of decreased glucose concentration”.
In the case of `[Cl-].[Na+]` [NaCl], the “Increase of 125I-cyanopindolol binding” value at human β2-AR [4] was “roughly 35%”.
Turning to `CNC[C@H](O)c1ccc(O)c(O)c1` [epinephrine], the “Calcium response in non-transfected HEK-293 cells” value in series [5] is “failed to show a calcium response”; in series [5] (listed as Epinephrine), “did not elicit a calcium response”. Also, at human β2-AR [6], the “Activation of the β2-AR (inward current and conductance)” value was “activated”. In series [7], the “Glucose accumulated after 10 min in the sac” value came to 833 ± 255 µM.
As to `CC(C)NC[C@@H](O)COc1cccc2[nH]cc(CC(=O)N(C)C)c12` [CD3-T3], the IC50 on human β2-AR [1] (setting [8]) is 66 nM; at human β2-AR [1] (setting [9]) it was 78 nM; on human β2-AR [1] (setting [10]), 78 nM. Moreover, in series [2] (test concentration 1.0E−06 M), the apical-to-basolateral permeability (Papp A→B) amounted to 0.1 ×10⁻⁶ cm/s. In series [2] (test concentration 1.0E−06 M), this compound came in with a Papp B→A of 3.2 ×10⁻⁶ cm/s. Further, the Papp at 1 μM in series [2] (Caco-2) came out at 0.1 ×10⁻⁶ cm/s. In series [2] (Caco-2, test concentration 1.0E−06 M), the efflux ratio at 1 µM is 32. Moreover, the MeanRecovery (A-B) in the series on Caco-2 cells (test concentration 1.0E−06 M) was 76%. This compound also registered a MeanRecovery (B-A) in the series on Caco-2 cells (test concentration 1.0E−06 M) of 90%.

The IC50 is the concentration at which inhibition is half-maximal. As a reminder, the Papp A→B is how fast a substance crosses the layer from the apical side. Read a low Papp A→B as poor permeation. The Papp B→A is how fast a substance crosses the layer from the basolateral side. Usually efflux ratio stands for the permeability from basolateral to apical divided by that in the opposite direction, in the common usage.

These data come from patent US20250312310A1, “Beta2-adrenergic receptor antagonists for use in treating diabetes or obesity” (NovelYeast bv, priority 2021, published 2025).
